Test results taken from US20210251981A1, “SOLID FORMS OF BERBERINE URSODEOXYCHOLATE AND COMPOSITIONS AND METHODS THEREOF” (SHENZHEN HIGHTIDE BIOPHARMACEUTICAL, LTD., priority 2017, published 2021).
Where two headings read alike, the source gives them in different places.

Columns and labels:
[1] = Accelerated stability evaluation (XRPD and HPLC after storage); type: physicochemical; details: for Purity (Area %): HPLC; for Form: XRPD; for decrease of HPLC purity: HPLC-DAD, under all three conditions
Description: (§1) XRPD patterns were collected on a PANalytical X-ray powder diffractometer fitted with an automatic sample changer, a theta-theta goniometer, automatic beam divergence slit and a PSD Vantec-1 detector. The X-ray tube voltage and amperage were set to 45 kV and 40 mA respectively. The diffractometer was aligned and a calibration check performed using a corundum reference material on the day of data collection. Data were collected and analyzed by the software Data Viewer.
(§2) Agilent 1260/1100 HPLC was utilized and detailed chromatographic conditions for purity and solubility measurement are listed in Table 5.
To evaluate the physical and chemical stability of Form A of BBR-UDCA and Form D of BBR-UDCA, samples were stored at 80° C. (sealed) for 24 hours, 25° C./60% RH (open) and 40° C./75% RH (open) for one week. […] The physical stability of Form A was better than Form D based on the 1-week stability results at 25° C./60% RH (open) and 40° C./75% RH (open).

[2] = 1-Month stability evaluation (XRPD and HPLC after storage); type: physicochemical; details: for Purity (Area %): HPLC; for Crystal Form: XRPD
Description: as §1, §2
Samples of Form A of BBR-UDCA, Form D of BBR-UDCA and BBR-UDCA (mixed crystals without quality control on crystal forms) were stored 25° C./60% RH (sealed) and 40° C./75% RH (sealed) for one month.

[3] = Hygroscopicity evaluation by Dynamic Vapor Sorption (DVS); type: physicochemical; details: for water uptake: DVS
Experimental: DVS was measured via a SMS (Surface Measurement Systems) DVS Intrinsic.
Dynamic Vapor Sorption (DVS) isotherm plot of Form A of BBR-UDCA was collected at 25° C. with the various humidity, 60% RH-95% RH-0% RH-95% RH (60% RH was the ambient humidity). As the DVS plot shown, a step-like weight loss was observed between 10% RH and 20% RH.
To investigate the hygroscopicity of Form D of BBR-UDCA, DVS isotherm plot of Form D was collected at 25° C. between 0 and 95% RH.

[4] = Equilibrium aqueous solubility; type: physicochemical
Experimental: as §2
About 5 mg of each crystal type of solid (Form A of BBR-UDCA and Form D of BBR-UDCA, respectively) was weighed in separate 3-mL bottle, suspended into 1 mL of water, slurried (1000 rpm) at RT for 24 hours, and then centrifuged at 10000 rpm for 3 minutes. The resulting residual solids were characterized by XRPD and supernatant was measured by HPLC-DAD/ELSD. Due to the poor UV absorption of UDCA, DAD was used as the detector only for BBR and ELSD was used for both BBR and UDCA. […] The reason of the deviation from 1:1 may be that after HTD 1801 dissolving in water, a small amount of disproportionation occurred and it was hardly detected by XRPD due to its limited amount.

[5] = air exposure
[6] = 1 week, 25° C./60% RH (open), * = degree of crystallinity decreased
[7] = 1 week, 40° C./75% RH (open), * = degree of crystallinity decreased
[8] = 1 Month, 25° C./60% RH (sealed)
[9] = 1 Month, 40° C./75% RH (sealed)
[10] = water, RT, 24 hours, ELSD as detector

Compound | Purity/Initial purity (%) ([1]; 1 week, 25° C./60% RH (open)) | Purity (Area %) ([1]; 1 week, 25° C./60% RH (open)) | Form [1, 6] | Purity/Initial purity (%) ([1]; 1 week, 40° C./75% RH (open)) | Purity (Area %) ([1]; 1 week, 40° C./75% RH (open)) | Form [1, 7] | Purity/Initial purity (%) ([1]; 24 hours, 80° C. (sealed)) | Purity (Area %) ([1]; 24 hours, 80° C. (sealed)) | Form ([1]; 24 hours, 80° C. (sealed)) | decrease of HPLC purity [1] | Purity (Area %) ([1]; Initial) | Purity/Initial purity (%) [2, 8] [%] | Purity (Area %) [2, 8] [Area %] | Crystal Form [2, 8] | Purity/Initial purity (%) [2, 9] [%] | Purity (Area %) [2, 9] [Area %] | Crystal Form [2, 9] | Purity (Area %) ([2]; Initial) | water uptake ([3]; 25° C./80% RH) [%] | further results
COc1ccc2cc3[n+](cc2c1OC)CCc1cc2c(cc1-3)OCO2.C[C@H](CCC(=O)[O-])[C@H]1CC[C@H]2[C@@H]3[C@@H](O)C[C@@H]4C[C@H](O)CC[C@]4(C)[C@H]3CC[C@]12C [Form A, berberine ursodeoxycholate] | 99.9 | 99.4 | Form A | 99.8 | 99.4 | Form A | 99.8 | 99.3 | Form A | no HPLC purity decrease | 99.5 | 99.8 | 99.3 | Form A | 99.9 | 99.4 | Form A | 99.5 | 9.9 | crystal-form change after DVS (XRPD) ([3]; 25° C., 60% RH-95% RH-0% RH-95% RH): no crystal-form change; Form of residual solid ([4]; water, RT, 24 hours slurry, XRPD, listed as Type A): Type A; Solubility of BBR ([4]; water, RT, 24 hours, DAD as detector): 350 µg/mL; Solubility of BBR [4, 10]: 330 µg/mL; Solubility of UDCA [4, 10]: 420 µg/mL
COc1ccc2cc3[n+](cc2c1OC)CCc1cc2c(cc1-3)OCO2.C[C@H](CCC(=O)[O-])[C@H]1CC[C@H]2[C@@H]3[C@@H](O)C[C@@H]4C[C@H](O)CC[C@]4(C)[C@H]3CC[C@]12C [Form D, berberine ursodeoxycholate] | 99.3 | 98.9 | Form D* | 98.3 | 97.9 | Form D* | 99.5 | 99.0 | Form D | 0.5-1.7 area % | 99.6 | 97.6 | 97.2 | Form D | 95.1 | 94.7 | Form D | 99.6 | 4.1 | crystal-form change (XRPD) ([1]; all three conditions: 80° C. sealed 24 hours, 25° C./60% RH open and 40° C./75% RH open one week): no crystal-form change; crystal-form change (XRPD) ([2]; 25° C./60% RH (sealed) and 40° C./75% RH (sealed), one month): No crystal-form change; behaviour in high humidity (DVS) ([3]; 25° C., over 90% RH): deliquesced in high humidity; water uptake ([3]; 25° C., 95% RH): 24.5%; Solubility of UDCA [4]: 520 µg/mL; molar ratio (BBR:UDCA) [4]: 0.93:1
COc1ccc2cc3[n+](cc2c1OC)CCc1cc2c(cc1-3)OCO2.C[C@H](CCC(=O)[O-])[C@H]1CC[C@H]2[C@@H]3[C@@H](O)C[C@@H]4C[C@H](O)CC[C@]4(C)[C@H]3CC[C@]12C [Form J, berberine ursodeoxycholate] | – | – | – | – | – | – | – | – | – | – | – | – | – | – | – | – | – | – | – | form conversion [5]: converts to Form A
COc1ccc2cc3[n+](cc2c1OC)CCc1cc2c(cc1-3)OCO2.C[C@H](CCC(=O)[O-])[C@H]1CC[C@H]2[C@@H]3[C@@H](O)C[C@@H]4C[C@H](O)CC[C@]4(C)[C@H]3CC[C@]12C [Mixed crystal, berberine ursodeoxycholate] | – | – | – | – | – | – | – | – | – | – | – | 91.7 | 90.8 | Mixed | 89.6 | 88.7 | Mixed | 99.0 | – | –
